The results in this text go back to patent publication US11518740B2, “Pleuromutilin (phenylthio)acetic acid ester with anti-drug resistant bacteria activity and a method of preparing the same” (SHAANXI UNIVERSITY OF SCIENCE AND TECHNOLOGY, priority 2021, dated 2022).

Common to all, as to type: cell-based
Experiment [1] has as its system multi-resistant Staphylococcus aureus 171. In words: Paper diffusion method drug sensitivity test, MRSA-171. The settings on record: for inhibitory effect (in words): multi-drug resistant Staphylococcus aureus 171, summary of FIGS. 1-3 and Table 1; for Zone of inhibition: strain MRSA-171, drug sensitive paper 30 μg/tablet, 37° C., 24 h. The method, then:
(§1) The antimicrobial efficacy was determined by a paper diffusion method drug sensitivity test.
(§2) Experimental strains: multi-resistant Staphylococcus aureus 171, multi-resistant Staphylococcus aureus 222, multi-resistant Staphylococcus aureus 596. The experimental strains were identified by Huashan Hospital Affiliated to Fudan University (Institute of Antibiotic of Fudan University).
(§3) Drug sensitive paper: The drug sensitive paper is a special drug sensitive paper with a diameter of 6.35 mm and a water absorption of 0.02 mL. The control drug was vancomycin (30 μg/tablet); the test drugs were pleuromutilin (phenylithio)acetic acid ester (30 μg/tablet).
(§4) Reagents: LB agar medium, LA broth medium, dichloromethane.
(§5) The experimental strains were inoculated in non-selective medium and placed in air at 37° C. for 24 h. Pick a single colony that grows well and inoculate it into broth medium, incubate at 35° C.±2° C. for 6 hours, and use LA broth medium to calibrate the concentration of the bacterial solution to 0.5 Mie turbidimetric tube (1.5×10^8 CFU/mL). A bacterial suspension is obtained.
(§6) The experimental strains were inoculated in non-selective medium and placed in air at 37° C. for 24 h. Pick a single colony that grows well and inoculate it into broth medium, incubate at 35° C.±2° C. for 6 hours, and use LA broth medium to calibrate the concentration of the bacterial solution to 0.5 Mie turbidimetric tube ([…]). A bacterial suspension is obtained.
(§7) LB dry powder was weighed, sterilized at 103.4 Kpa, 121.3° C. high-pressure steam for 15 min, and then placed it in a 40° C.-50° C. water bath. A sterile empty plate (inner diameter 9 cm) was placed on the surface of the ultra-clean table water table, and […] to the plate. The thickness of each plate was 3 mm to 4 mm. After the plate was cooled at room temperature, it was stored in the refrigerator at 2° C.-8° C. A sterile cotton swab was used to dip the bacterial solution and to evenly coat the surface of the LB plate 3 times. After inoculation of the bacterial suspension, the LB plate was dried at room temperature for 3 min to 5 min. Sterile forceps were used to closely attach the antibacterial drug paper to the dish. The dish was put upside down and placed in a 37° C. incubator for 24 h. The results were observed by measuring the diameter. Taking 0.5% DMSO solution as a negative control, the antibacterial activity is expressed by the diameter of the inhibition zone. The inhibition zone≥17 mm, sensitive; the inhibition zone of 15 mm-16 mm, intermediary; the inhibition zone≤14 mm, drug resistance.

Experiment [2] deals with multi-resistant Staphylococcus aureus 596. Kind of experiment: Paper diffusion method drug sensitivity test, MRSA-596. The settings on record: for inhibitory effect (in words): multi-drug resistant Staphylococcus aureus 596, summary of FIGS. 1-3 and Table 1; for Zone of inhibition: strain MRSA-596, drug sensitive paper 30 μg/tablet, 37° C., 24 h. The method, then: as §1, §2, §3, §4, §5, §6, §7

The subject of experiment [3] is multi-resistant Staphylococcus aureus 222. Kind of experiment: Paper diffusion method drug sensitivity test, MRSA-222. The conditions noted are these: for inhibitory effect (in words): multi-drug resistant Staphylococcus aureus 222, summary of FIGS. 1-3 and Table 1; for Zone of inhibition: strain MRSA-222, drug sensitive paper 30 μg/tablet, 37° C., 24 h. The method, then:
as §1, §2, §3, §4, §5, §6, §7

Turning to `C=C[C@]1(C)CC(OC(=O)COC(=O)CSc2ccccc2)[C@]2(C)[C@H](C)CC[C@]3(CCC(=O)[C@H]32)[C@@H](C)[C@@H]1O` (some centres unmarked), the “inhibitory effect (in words)” value in experiment [1], in experiment [2] and in experiment [3] was “strong inhibitory effects” each time. Moreover, the Zone of inhibition in experiment [2] was 23 mm; in experiment [3] it was 15 mm.
With `O=C(O)CSc1ccccc1` [(Phenylithio)acetic acid], the “inhibitory effect (in words)” value in experiment [1], in experiment [2] and in experiment [3] was “no inhibitory effect” each time. For the same compound, the Zone of inhibition in experiment [1], in experiment [2] and in experiment [3] was 0 mm each time.
Regarding `C=C[C@]1(C)C[C@@H](OC(=O)CO)[C@]2(C)[C@H](C)CC[C@]3(CCC(=O)[C@H]32)[C@@H](C)[C@@H]1O` [Pleuromutilin], the “inhibitory effect (in words)” value in experiment [1], in experiment [2] and in experiment [3] was “no inhibitory effect” each time. Besides, the Zone of inhibition in experiment [1], in experiment [2] and in experiment [3] was 0 mm in each case.
As for `CN[C@H](CC(C)C)C(=O)N[C@H]1C(=O)N[C@@H](CC(N)=O)C(=O)N[C@H]2C(=O)N[C@H]3C(=O)N[C@H](C(=O)N[C@H](C(=O)O)c4cc(O)cc(O)c4-c4cc3ccc4O)[C@H](O)c3ccc(c(Cl)c3)Oc3cc2cc(c3O[C@@H]2O[C@H](CO)[C@@H](O)[C@H](O)[C@H]2O[C@H]2C[C@](C)(N)[C@H](O)[C@H](C)O2)Oc2ccc(cc2Cl)[C@H]1O` [Vancomycin], the values for the Zone of inhibition in experiment [1], in experiment [2] and in experiment [3] were 17 mm, 21 mm and 18 mm, respectively.
